In brackets after ≈: the same amount, converted by molar mass. Structures can show the parent of a compound that is named as a salt. Where two headings read alike, the source gives them in different places.
How the values were obtained:
[1] = biological target: E. coli PBP3 (Escherichia coli (strain K12), UniProt P0AD68); assay: E. coli PBP3 Bocillin-FL fluorescence polarization competition binding assay
How it was run: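 Polarization at 490/520 nm was monitored for 60 minutes in pH 8.0 Hepes buffer containing 300 mM NaCl and 5% glycerol, with compound spanning 0–1000 μM.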

[2] = tested on: engineered strain of Escherichia coli harboring CTX-M15; assay: microbe, parasite or virus in culture; format: cell-based; details: Escherichia coli, read-out: Microbiological Activity (MIC in mg/L), E. coli DH5α/pLBII-CTX-M15, engineered strain producing CTX-M15
Method: Briefly, cryo-preserved bacterial cultures of challenge strains are streaked for isolation on appropriate agar medium, in this case Mueller Hinton II agar. Following incubation to allow growth of the colonies, plates are sealed with parafilm and stored refrigerated for up to two weeks. For preparation of assay inoculum and to ensure low variability, at least 5 colonies are picked from the agar plates with an inoculating loop and aseptically transferred to a culture tube containing 3 mL of Mueller-Hinton Broth (supplemented with divalent cations to required levels based on Manufacturers' certification). The broth culture is grown for 3-5 hours at 37° C. with shaking at 200 rpm. Meanwhile, 2-fold serial dilutions of test compounds are conducted in a 96 well plate with a final volume of 75 μL per well at 2-fold the final desired concentration. After the dilution plates are set up the growing cultures are then diluted in a cuvette containing MH II broth and the optical density is measured at 600 nm. The Inoculum is diluted such that 75 μL of this culture in Mueller-Hinton Broth results in a starting bacterial concentration of 5×10^5 CFU/mL when added to the dilution plates. The plates are incubated for 16-20 hours at 37° C. The MIC values are read visually as the lowest concentration well with no bacterial growth.
To determine if test compounds were affected by CTX-M15, the most abundant extended spectrum […] in clinical settings worldwide, the inhibition of the growth of an engineered strain of Escherichia coli harboring CTX-M15 was tested. This strain was constructed by cloning the gene encoding CTX-M15 into the NdeI and BamHI restriction endonuclease sites of plasmid pLBII, placing the gene(s) under the control of the Lac promoter. The constructed expression plasmid for CTX-M15 was used to transform competent E. coli DH5α cells to make the engineered strain, including an empty pLBII vector control strain. The classic cell based broth microdilution MIC assay was employed as described above with the addition of control antibiotics, known to be degraded by β-lactamases (Ceftazidime, piperacillin and piperacillin+tazobactam).

[3] = tested on: N. gonorrhoeae ATCC 49226; assay: Liquid broth MIC, N. gonorrhoeae ATCC 49226; format: cell-based; details: Neisseria gonorrhoeae, ATCC49226; N. gonorrhoeae ATCC 49226, liquid broth; read-out: Minimum Inhibitory Concentration, N. gonorrhoeae ATCC 49226
Method: (§1) Additional antibacterial testing of the series was performed in wild-type reference strains of N. gonorrhoeae (ATCC 49226, FA1090, WHO F and FA19). Liquid broth-based assays were used for antibacterial testing of PBP inhibitors in Neisseria gonorrhoeae. Briefly, cryo-preserved bacterial cultures of clinical strains are streaked for isolation on GC Base agar (BD #228950 at 36 g/L autoclaved at 121° C. for 20 minutes to sterilize) with 1% Kellogg's supplement (40 g glucose, 0.5 g glutamine, 0.05 g ferric nitrate and 2 mg cocarboxylase per 100 mL deionized water filter sterilized through 0.2 μm syringe filters). Following incubation at 36° C. and 5% CO2 to allow growth of colonies, strains are aseptically sub-cultured from original agar plate onto 3 agar plates per strain 24 hours before inoculum preparation. 2-fold serial dilutions of test compounds are conducted in a 96 well plate with a final volume of 150 μL per well at 4/3-fold the final desired concentration. For preparation of assay inoculum, a direct suspension is prepared by aseptically swabbing all colonies from sub-cultured agar plates into culture tubes containing 2 mL of fresh GC broth with […]. After the dilution plates are set up, direct suspensions are then diluted in a cuvette containing GC broth (15 g proteose peptone 43, 1 g corn starch, 4 g dipotassium phosphate, 1 g monopotassium phosphate and 5 g sodium chloride per liter of deionized water are mixed on a stir plate for 20 minutes, pH adjusted to 7.2+/−0.2 pH units with 1 N HCl, centrifuged at 10,000×g for 20 minutes to pellet undissolved corn starch and then autoclaved at 121° C. for 20 minutes to sterilize) and the optical density is measured at 600 nm. Inocula are diluted such that 50 μL of this culture in […] results in a starting bacterial concentration of 5×10^5 CFU/mL when added to the dilution plates. The plates are incubated 40-42 hours at 36° C. and 5% CO2. The MIC is read visually as the lowest concentration well with no bacterial growth.

[4] = tested on: N. gonorrhoeae WHO F; assay: Liquid broth MIC, N. gonorrhoeae WHO F; format: cell-based; details: Neisseria gonorrhoeae; N. gonorrhoeae WHO F, liquid broth; read-out: Minimum Inhibitory Concentration, N. gonorrhoeae WHO F
Method: as §1

[5] = tested on: N. gonorrhoeae FA1090; assay: Liquid broth MIC, N. gonorrhoeae FA1090; format: cell-based; details: Neisseria gonorrhoeae; N. gonorrhoeae FA1090, liquid broth; read-out: Minimum Inhibitory Concentration, N. gonorrhoeae FA1090
Method: as §1

[6] = tested on: N. gonorrhoeae FA19; assay: Liquid broth MIC, N. gonorrhoeae FA19; format: cell-based; details: Neisseria gonorrhoeae; N. gonorrhoeae FA19, liquid broth; read-out: Minimum Inhibitory Concentration, N. gonorrhoeae FA19
Method: as §1

[7] = fluorescence polarization competition binding with Bocillin-FL, read-out: E. coli K12 PBP3 Potency

Chain of E. coli PBP3 (P0AD68 whole entry): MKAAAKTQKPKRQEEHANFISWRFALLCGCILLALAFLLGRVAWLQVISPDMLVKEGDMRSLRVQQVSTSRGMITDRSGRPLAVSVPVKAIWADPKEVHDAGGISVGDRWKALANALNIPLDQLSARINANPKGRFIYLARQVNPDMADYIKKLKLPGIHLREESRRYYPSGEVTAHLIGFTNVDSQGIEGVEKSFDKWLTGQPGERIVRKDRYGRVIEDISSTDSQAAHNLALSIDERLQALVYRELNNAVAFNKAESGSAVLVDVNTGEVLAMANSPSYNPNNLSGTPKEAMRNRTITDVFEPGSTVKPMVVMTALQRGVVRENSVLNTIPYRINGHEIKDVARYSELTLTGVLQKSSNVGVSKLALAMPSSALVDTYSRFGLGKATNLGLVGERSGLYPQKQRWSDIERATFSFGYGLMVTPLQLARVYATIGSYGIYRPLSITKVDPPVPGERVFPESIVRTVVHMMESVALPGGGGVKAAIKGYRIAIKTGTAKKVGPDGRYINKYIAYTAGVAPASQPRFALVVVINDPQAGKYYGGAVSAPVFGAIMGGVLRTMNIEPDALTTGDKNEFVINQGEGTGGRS

Structure (SMILES) | EC50 [1] [µM] | MIC [2] [mg/L] | EC50 [1, 7] [µM] | MIC [3] [µg/mL] | MIC [4] [µg/mL] | MIC [5] [µg/mL] | MIC [6] [µg/mL]
CCN1CCN(C(=O)NC(C(=O)N[C@H]2Cc3cccc(C(=O)O)c3OB2O)c2c(C)n[nH]c2C)C(=O)C1=O (stereo partly drawn) [Example 54, (3R)-3-(2-(3,5-dimethyl-1H-pyrazol-4-yl)-2-(4-ethyl-2,3-dioxopiperazine-1-carboxamido)acetamido)-2-hydroxy-3,4-dihydro-2H-benzo[e][1,2]oxaborinine-8-carboxylic acid, trifluoroacetic acid salt] | 30 to 500 | 128 to 256 | – | – | – | – | –
CCN1CCN(C(=O)NC(C(=O)N[C@H]2Cc3cccc(C(=O)O)c3OB2O)C2CCNC2)C(=O)C1=O (stereo partly drawn) [Example 55, (3R)-3-(2-(4-ethyl-2,3-dioxopiperazine-1-carboxamido)-2-(pyrrolidin-3-yl)acetamido)-2-hydroxy-3,4-dihydro-2H-benzo[e][1,2]oxaborinine-8-carboxylic acid, trifluoroacetic acid salt] | – | 128 to 256 | > 500 | – | – | – | –
CCN1CCN(C(=O)NC(C(=O)N[C@H]2Cc3cccc(C(=O)O)c3OB2O)C2CCN(CC(N)=O)C2)C(=O)C1=O (stereo partly drawn) [Example 57, (3R)-3-(2-(1-(2-amino-2-oxoethyl)pyrrolidin-3-yl)-2-(4-ethyl-2,3-dioxopiperazine-1-carboxamido)acetamido)-2-hydroxy-3,4-dihydro-2H-benzo[e][1,2]oxaborinine-8-carboxylic acid, trifluoroacetic acid salt] | – | 128 to 256 | > 500 | – | – | – | –
CCN1CCN(C(=O)N[C@@H](C(=O)N[C@H]2Cc3cccc(C(=O)O)c3OB2O)[C@@H](C)OCC(N)=O)C(=O)C1=O [Example 66, (R)-3-((2R,3R)-3-(2-amino-2-oxoethoxy)-2-(4-ethyl-2,3-dioxopiperazine-1-carboxamido)butanamido)-2-hydroxy-3,4-dihydro-2H-benzo[e][1,2]oxaborinine-8-carboxylic acid] | 30 to 500 | 32 to 64 (≈ 60 to 120 µM) | – | – | – | – | –
CCN1CCN(C(=O)N[C@H](CNS(=O)(=O)C(F)(F)F)C(=O)N[C@H]2Cc3cccc(C(=O)O)c3OB2O)C(=O)C1=O [Example 75, (R)-3-((R)-2-(4-ethyl-2,3-dioxopiperazine-1-carboxamido)-3-((trifluoromethyl)sulfonamido)propanamido)-2-hydroxy-3,4-dihydro-2H-benzo[e][1,2]oxaborinine-8-carboxylic acid] | – | 128 to 256 (≈ 216 to 431 µM) | > 500 | – | – | – | –
CCN1CCN(C(=O)N[C@H](CNS(C)(=O)=O)C(=O)N[C@H]2Cc3cccc(C(=O)O)c3OB2O)C(=O)C1=O [Example 83, (R)-3-((R)-2-(4-ethyl-2,3-dioxopiperazine-1-carboxamido)-3-(methylsulfonamido)propanamido)-2-hydroxy-3,4-dihydro-2H-benzo[e][1,2]oxaborinine-8-carboxylic acid] | – | 32 to 64 (≈ 59.3 to 119 µM) | > 500 | – | – | – | –
C[C@@H](O)[C@@H](NC(=O)N1CCN(CCF)C(=O)C1=O)C(=O)N[C@H]1Cc2cc(O)c(O)c(C(=O)O)c2OB1O [Example 94, (R)-3-((2R,3R)-2-(4-(2-fluoroethyl)-2,3-dioxopiperazine-1-carboxamido)-3-hydroxybutanamido)-2,6,7-trihydroxy-3,4-dihydro-2H-benzo[e][1,2]oxaborinine-8-carboxylic acid] | – | 128 to 256 (≈ 243 to 486 µM) | > 500 | – | – | – | –
CCN1CCN(C(=O)N[C@@H](C(=O)N[C@H]2Cc3cc(O)c(O)c(C(=O)O)c3OB2O)[C@@H](C)O)C(=O)C1=O [Example 95, (R)-3-((2R,3R)-2-(4-ethyl-2,3-dioxopiperazine-1-carboxamido)-3-hydroxybutanamido)-2,6,7-trihydroxy-3,4-dihydro-2H-benzo[e][1,2]oxaborinine-8-carboxylic acid] | – | 128 to 256 (≈ 252 to 504 µM) | > 500 | – | – | – | –
CCN1CCN(C(=O)N[C@@H](C(=O)N[C@H]2Cc3cc(O)c(O)c(C(=O)O)c3OB2O)[C@H](C)O)C(=O)C1=O [Example 96, (R)-3-((2R,3S)-2-(4-ethyl-2,3-dioxopiperazine-1-carboxamido)-3-hydroxybutanamido)-2,6,7-trihydroxy-3,4-dihydro-2H-benzo[e][1,2]oxaborinine-8-carboxylic acid] | – | 128 to 256 (≈ 252 to 504 µM) | > 500 | – | – | – | –
CCN1CCN(C(=O)N[C@@](C)(C(=O)N[C@H]2Cc3cccc(C(=O)O)c3OB2O)c2csc(N)n2)C(=O)C1=O [Example 97, (R)-3-((R)-2-(2-aminothiazol-4-yl)-2-(4-ethyl-2,3-dioxopiperazine-1-carboxamido)propanamido)-2-hydroxy-3,4-dihydro-2H-benzo[e][1,2]oxaborinine-8-carboxylic acid] | – | 128 to 256 (≈ 235 to 470 µM) | > 500 | – | – | – | –
CCN1CCN(C(=O)NC(C(=O)N[C@H]2Cc3cccc(C(=O)O)c3OB2O)c2ccsc2)C(=O)C1=O (stereo partly drawn) [Example 137, (3R)-3-(2-(4-ethyl-2,3-dioxopiperazine-1-carboxamido)-2-(thiophen-3-yl)acetamido)-2-hydroxy-3,4-dihydro-2H-benzo[e][1,2]oxaborinine-8-carboxylic acid] | 30 to 500 | – | – | 1 to 2 (≈ 1.94 to 3.89 µM) | < 0.125 | < 0.125 | 4 to 8 (≈ 7.78 to 15.6 µM)
CCN1CCN(C(=O)NC(C(=O)N[C@H]2Cc3ccc(F)c(C(=O)O)c3OB2O)c2cnc(N)s2)C(=O)C1=O (stereo partly drawn) [Example 152, (3R)-3-(2-(2-aminothiazol-5-yl)-2-(4-ethyl-2,3-dioxopiperazine-1-carboxamido)acetamido)-7-fluoro-2-hydroxy-3,4-dihydro-2H-benzo[e][1,2]oxaborinine-8-carboxylic acid] | 30 to 500 | – | – | 1 to 2 (≈ 1.82 to 3.65 µM) | 0.25 to 0.5 (≈ 0.456 to 0.912 µM) | 0.25 to 0.5 (≈ 0.456 to 0.912 µM) | 1 to 2 (≈ 1.82 to 3.65 µM)
Nc1ncc(C(NC(=O)N2CCN(CCF)C(=O)C2=O)C(=O)N[C@H]2Cc3ccc(F)c(C(=O)O)c3OB2O)s1 (stereo partly drawn) [Example 153, (3R)-3-(2-(2-aminothiazol-5-yl)-2-(4-(2-fluoroethyl)-2,3-dioxopiperazine-1-carboxamido)acetamido)-7-fluoro-2-hydroxy-3,4-dihydro-2H-benzo[e][1,2]oxaborinine-8-carboxylic acid] | 30 to 500 | – | – | 1 to 2 (≈ 1.77 to 3.53 µM) | 0.25 to 0.5 (≈ 0.441 to 0.883 µM) | 0.25 to 0.5 (≈ 0.441 to 0.883 µM) | 1 to 2 (≈ 1.77 to 3.53 µM)
CCN1CCN(C(=O)NC(C(=O)N[C@H]2Cc3ccc(Cl)c(C(=O)O)c3OB2O)c2csc(N)n2)C(=O)C1=O (stereo partly drawn) [Example 215, (3R)-3-(2-(2-aminothiazol-4-yl)-2-(4-ethyl-2,3-dioxopiperazine-1-carboxamido)acetamido)-7-chloro-2-hydroxy-3,4-dihydro-2H-benzo[e][1,2]oxaborinine-8-carboxylic acid] | 30 to 500 | – | – | 4 to 8 (≈ 7.08 to 14.2 µM) | 0.25 to 0.5 (≈ 0.443 to 0.885 µM) | 1 to 2 (≈ 1.77 to 3.54 µM) | 4 to 8 (≈ 7.08 to 14.2 µM)

— US12173018B2, “Penicillin-binding protein inhibitors” (priority 2018, dated 2024)
